Experimental data published in patent publication US20180022780A1, “STABILIZATION ADRENOMEDULLIN DERIVATIVES AND USE THEREOF” (priority 2014, published 2018).
Values belong to the compound of their own block, whether it stands above or below them. Ends that are not written are not given here.

How the values were obtained:
guinea pig atria = conditions: cited from earlier work
[1] = tested on: receptor in rat spleen membranes; conditions: cited from earlier work
[2] = Stability in human blood plasma (TAM-labeled analogues); type: in vitro ADME; conditions: 10E-5 M, 37° C., two phase decay, N-terminally TAM-labeled analogues, read-out: HalfLife (Slow) (converted)
Excerpt: FIG. 3: Stability of peptides in plasma calculated with GraphPad Prism 5 (GraphPad Software) using two phase decay analysis for the determination of half-life (slow) (Test 1e). N-terminally 6-carboxytetramethylrhodamine-(TAM)-labeled analogues of Control: TAM[G^14]ADM(14-52); Example 18: TAM[K^14(PAM), (Dpr^16, E^21)lac]ADM(14-52); and Example 27: TAM[K^14(PAM), (Dpr^16, E^21)lac, Nα-Me-K^46]ADM(14-52).
The stability of the peptides was investigated using N-terminally 6-carboxytetramethylrhodamine-(TAM)-labeled analogues.
Fluorescently labeled ADM analogues were prepared by using solid phase peptide synthesis (SPPS) as described before (general method for peptide synthesis). Manual coupling of 6-carboxytetramethylrhodamine (TAM) to the N-terminus of the peptides was carried out with a 3-fold molar excess of the fluorescence dye, 2-(1H-benzotriazol-1-yl)-1,1,3,3-tetramethyluronium hexafluorophosphate (HBTU) and N,N-Diisopropylethylamine (DIPEA) in DMF under constant shaking for 24 h the resin as described recently (Bohme D., Beck-Sickinger A. G. ChemMedChem 2015, 10: 804-14). The identity of the peptides was confirmed by mass spectrometry with an MALDI-MS (UltraflexIII, Bruker) and an ESI-MS (HCT, Bruker). The observed masses were in correspondence to the calculated masses.
The peptides were dissolved in 1.5 ml of human blood plasma to a concentration of 10E-5 M and incubated at 37° C. under constant shaking. […] The samples were analyzed by RP-HPLC using a Varian VariTide RPC column (particle size 6 μm; pore size 200 Å; 250×4.6 mm) with linear gradients of 0.1% TFA in water and 0.08% TFA in ACN; fluorescence emission was detected at λ=573 nm. The percentage of intact peptide was determined by peak integration. […] The stability of the peptides was calculated with GraphPad Prism 5 (GraphPad Software) using a two phase exponential decay function for the determination of slow-decay phase half-lives (ln(2)/Kslow; Kslow: rate constant of slow part of exponential decay) (Table 3 and FIG. 3).

[3] = only at −80° C. under argon atmosphere; cited from earlier work
[4] = tested on: mean arterial blood pressure; conditions: doses of ≦300 μg/kg body weight; reference WO 2013/064508 A1; cited from earlier work

Compound: cyclo [Asp^2, Lys^7]-CGRP
biological activity (agonist function) (guinea pig atria): loss of agonist function
decrease in affinity to the receptor [1]: 50%

half-life at 0.0001 M [2]: 9 h
Compound: CC[C@H](C)[C@H](NC(=O)[C@H](CCC(N)=O)NC(=O)[C@H](Cc1c[nH]cn1)NC(=O)[C@H](C)NC(=O)[C@H](CC(C)C)NC(=O)[C@H](CCCCN)NC(=O)[C@H](CCC(N)=O)NC(=O)[C@@H](NC(=O)[C@@H](NC(=O)[C@@H]1CSSC[C@H](NC(=O)CNC(=O)CNC(=O)c2ccc3c(c2)C2(OC3=O)c3ccc(N(C)C)cc3Oc3cc(N(C)C)ccc32)C(=O)N[C@@H](CCCNC(=N)N)C(=O)N[C@@H](Cc2ccccc2)C(=O)NCC(=O)N[C@@H]([C@@H](C)O)C(=O)N1)[C@@H](C)O)C(C)C)C(=O)N[C@@H](Cc1ccc(O)cc1)C(=O)N[C@@H](CCC(N)=O)C(=O)N[C@@H](Cc1ccccc1)C(=O)N[C@H](C(=O)N[C@@H](CC(=O)O)C(=O)N[C@@H](CCCCN)C(=O)N[C@@H](CC(=O)O)C(=O)N[C@@H](CCCCN)C(=O)N[C@@H](CC(=O)O)C(=O)N[C@@H](CC(N)=O)C(=O)N[C@H](C(=O)N[C@@H](C)C(=O)N1CCC[C@H]1C(=O)N[C@@H](CCCNC(=N)N)C(=O)N[C@@H](CO)C(=O)N[C@@H](CCCCN)C(=O)N[C@H](C(=O)N[C@@H](CO)C(=O)N1CCC[C@H]1C(=O)N[C@@H](CCC(N)=O)C(=O)NCC(=O)N[C@@H](Cc1ccc(O)cc1)C(N)=O)[C@@H](C)CC)C(C)C)[C@@H](C)O [TAM-control, TAM[G^14]ADM(14-52), reference compound]

Compound: amylin-(1-8) (KCNTATCA; ends and bridges not checked; cysteine pairing not given here; UniProt P10997 34-41, looked up, fragment) [native octapeptide amylin (1-8), literature]
time stable on storage [3]: 6 month

Compound: adrenomedullin (human) [wt ADM]
duration of blood pressure reduction [4]: ≤ 4 h
